According to PubChem BioAssay AID1959 (Broad Institute, 2009):
pEC50: −log10 of the molar value. Activity calls are given as the source filed them.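 How the source made its calls: active means growth-inhibition EC50 no more than tenfold above the top tested dose; inconclusive means flat fit between 30% and 70% inhibition, or unreliable fit; inactive means EC50 more than tenfold above the top tested dose.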

The molecules below were run on E. coli NEB5alpha growth, BacTiter-Glo luminescence, 4 h (assay: antibacterial activity against E. coli NEB5alpha – luminescence, counter-screen for MEX-5/POS-1 RNA-binding inhibitor project, dose response (AID 1959);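 further: pUC19-transformed ampicillin-resistant cells grown in LB with ampicillin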).
For `COc1cc(C(CCN2CCCC2)c2c(OC)cc(OC)c3c(-c4ccccc4)cc(=O)oc23)cc(OC)c1OC` (centres undefined), the EC50 was > 11 µM (inactive). For `Cc1nc(S/C(=C/c2ccc(-c3cccc(Cl)c3)o2)C(=O)O)n[nH]1`, the EC50 was > 11 µM (inactive). For `O=C(O)CCc1ccc(-c2ccccc2)n1-c1cccc(C(=O)O)c1`, the EC50 was > 11 µM (inactive). For `CC(C)(C)NC(=S)NCCc1ccccc1`, the EC50 was > 11 µM (inactive). For `Cc1cc(C(=O)O)ccc1-n1c(C)ccc1C`, the EC50 was > 11 µM (inactive). In the case of `O=C1CS/C(=N/N=C/c2cccs2)N1`, the EC50 was > 11 µM (inactive). For `O=C(N/N=C/c1cccnc1)c1cc(O)c(O)c(O)c1`, the EC50 was > 11 µM (inactive). With `COc1cccc(OCCCn2cc(/C=C3/C(=N)N4C=C(C)SC4=NC3=O)c3ccccc32)c1` the EC50 was > 11 µM (inactive). With `C/C(=N\NC(=O)c1nnn(-c2nonc2N)c1-c1cccs1)c1cccc(O)c1` the EC50 was > 11 µM (inactive). In the case of `COc1cc(S(=O)(=O)Nc2ccc(C)cc2)ccc1N=Cc1c(C)c(C#N)c(=O)n(C)c1O`, the EC50 was > 11 µM (inactive). In the case of `CC1=Nc2ccccc2/C1=C\c1nc(-c2ccc(F)cc2)oc1O`, the EC50 was > 11 µM (inactive). For `CCNC(=O)c1cc2c(=O)n3cccc(C)c3nc2n(Cc2ccc(C)cc2)c1=N`, the EC50 was > 11 µM (inactive). With `O=C(O)c1cc(O)c2c(c1)C(=O)c1cccc(O)c1C2=O` the EC50 was > 11 µM (inactive). For `CCO/C(C)=N/n1c2nc3ccccc3nc2c2c(=O)n(C3CCCC3)c(C)nc21`, the EC50 was > 11 µM (inactive). `CCOC(=O)c1ccc(CC(=O)c2ccc(O)c(O)c2O)o1` was tested, and the EC50 was > 11 µM (inactive). With `CCCSc1nnc(NC(=O)Nc2ccccc2)s1` the EC50 was > 11 µM (inactive). In the case of `O=C(N/N=C/c1c(O)n(CCc2ccccc2)c(=O)[nH]c1=O)c1ccncc1`, the EC50 was > 11 µM (inactive). In the case of `C(=N\NC(=Nc1ccccc1)c1ccccn1)/c1ccccn1`, the EC50 was > 11 µM (inactive). For `Cc1ccc(/C=C2/Sc3ccc(C(=O)N4CCC5(CC4)OCCO5)cc3NC2=O)cc1`, the EC50 was > 11 µM (inactive). In the case of `C/C(=N\Nc1ncnc2sc(C)c(C)c12)c1ccccn1`, the EC50 was > 11 µM (inactive). For `COC(=O)c1cc2n3ccccc3c(C)c(-c3ccccc3)c-2c1C(=O)OC`, the EC50 was > 11 µM (inactive). With `CN1C(=O)NC(c2ccccc2[N+](=O)[O-])C2=C1CCCC2=O` (centres undefined) the EC50 was > 11 µM (inactive). For `O=[N+]([O-])c1cc(-c2ccc([As](=O)(O)O)cc2)ccc1[As](=O)(O)O`, the EC50 was > 11 µM (inactive). `CCCNC(=O)c1ccc2c(=O)c(O)c(-c3cccc(Br)c3)[nH]c2c1` was tested, and the EC50 was > 11 µM (inactive). In the case of `Cc1cc(C=C2C(=O)NC(=O)NC2=O)c(C)n1-c1cccnc1`, the EC50 was > 11 µM (inactive). With `COc1cc(/C=C2\CCc3c2nc2ccccc2c3C(=O)O)cc(OC)c1OC` the EC50 was > 11 µM (inactive). For `CC1(C)CC(=O)C2=C(C1)OC(N)=C(C#N)[C@@]21C(=O)N(CC(N)=O)c2ccccc21`, the EC50 was > 11 µM (inactive). In the case of `CCOC(=O)c1cc(C(=O)OCC)cc(-n2c(C)cc(C(=O)CN3CCOCC3)c2C)c1`, the EC50 was > 11 µM (inactive). With `O=C1c2ccccc2C(=O)c2[nH]c(=O)[nH]c21` the EC50 was > 11 µM (inactive). `CCCCCCn1c(O)c(C=Nc2ccccc2N2CCOCC2)c(=O)[nH]c1=S` was tested, and the EC50 was > 11 µM (inactive). For `Cn1c(=O)cc2c3c(c(N4CCCCC4)ccc31)C(=O)c1ccccc1-2`, the EC50 was > 11 µM (inactive). `NC(CO)C(=O)NNCc1ccc(O)c(O)c1O` (centres undefined) was tested, and the EC50 was > 11 µM (inactive). With `O=C(O)C(=O)/C(=C\c1ccsc1)c1ccc2ccccc2n1` the EC50 was > 11 µM (inactive). For `O=[N+]([O-])c1cc(-c2ccc(/C=N/n3cnnc3)o2)ccc1Cl`, the EC50 was > 11 µM (inactive). For `Cc1cccc(-c2c3c(=O)n(C)c(=O)n(C)c3c3cccnn23)c1`, the EC50 was > 11 µM (inactive). With `Cc1onc(-c2c(F)cccc2Cl)c1C(=O)N1CCCc2ccccc21` the EC50 was > 11 µM (inactive). In the case of `Cc1ccc(-c2ccc(CCC(=O)O)n2-c2cccc(C(=O)O)c2)cc1`, the EC50 was > 11 µM (inactive). In the case of `Cc1ccc(/C=C2/C(=O)NC(=O)N(CCc3ccc(F)cc3)C2=O)o1`, the EC50 was > 11 µM (inactive). `COc1cc(OC)c(C2C(C#N)=C(N)OC3=C2C(=O)CC(C)C3)cc1OC` (centres undefined) was tested, and the EC50 was > 11 µM (inactive). `Cc1cc(/C=C2/C(=O)NC(=O)N(Cc3ccco3)C2=O)c(C)n1-c1ccc(C(=O)O)cc1` was tested, and the EC50 was > 11 µM (inactive). With `Cc1ccc(-c2cc(-c3ccco3)c(C#N)c(=O)[nH]2)cc1` the EC50 was > 11 µM (inactive). With `COc1ccc(/C=C2/N=C(c3cccs3)OC2=O)cc1OC(C)C` the EC50 was > 11 µM (inactive). With `CCOC(=O)c1c(/N=C/C2C(=O)NC(=S)NC2=O)sc(C)c1C` the EC50 was > 11 µM (inactive). With `CC(C)C(C(=O)O)N1C(=O)/C(=C/C=C/c2ccco2)SC1=S` (centres undefined) the EC50 was > 11 µM (inactive). In the case of `Cc1ccc(NC(=O)CN2C(=O)S/C(=C\c3cccn3-c3cccc(C(=O)O)c3)C2=O)c(C)c1`, the EC50 was > 11 µM (inactive). With `COC(=O)c1cccc(-n2c(CCC(=O)O)ccc2-c2cccs2)c1` the EC50 was > 11 µM (inactive). For `CCOCCCNc1nc2nc3ccc(C)cn3c(=O)c2cc1C(=O)NCC1CCCO1` (centres undefined), the EC50 was > 11 µM (inactive). `O=C(CN1CCC(n2nnc3cc(F)ccc32)CC1)NCCc1ccccc1` was tested, and the EC50 was > 11 µM (inactive). With `COc1ccc(C(=O)c2sc3nc(C)cc(-c4cccs4)c3c2N)cc1` the EC50 was > 11 µM (inactive). `Cc1cccc(C)c1NC(=O)NN=C1CCCCC1` was tested, and the EC50 was > 11 µM (inactive). `COc1ccccc1Nc1nc2nonc2nc1N1CCCCC1C` (centres undefined) was tested, and the EC50 was > 11 µM (inactive). With `COCc1cc(=O)n2[nH]c(-c3cccs3)cc2n1` the EC50 was > 11 µM (inactive). `C=CCn1ccc(=NC=C(C#N)C#N)c2ccccc21` was tested, and the EC50 was > 11 µM (inactive). `Cc1ccc(-c2ccccc2)n1-c1ccc(C(=O)O)cc1` was tested, and the EC50 was > 11 µM (inactive). In the case of `CCCC[n+]1ccn(C2=C([O-])c3ccccc3C(=O)/C2=N\S(=O)(=O)c2ccc(Cl)cc2)c1`, the EC50 was > 11 µM (inactive). `CC1(C)CC(=O)C2=C(C1)OC(/N=C/N1CCCC1)=C(C#N)C2c1ccccc1` (centres undefined) was tested, and the EC50 was > 11 µM (inactive). For `CC(C)C1Nc2c(O)cc(Cl)c([N+](=O)[O-])c2C2C=CCC21` (centres undefined), the EC50 was > 11 µM (inactive). With `CN1C(=O)c2ccccc2NC(=O)[C@]12O[C@@H]2c1cccc(O)c1` the EC50 was > 11 µM (inactive). With `CCCCN1C(=O)/C(=C2/Sc3ccccc3N2C)S/C1=N\c1ncn[nH]1` the EC50 was > 11 µM (inactive). With `CCCn1cc2c3c(cccc31)C1CC(C)CN(C)C1C2` (centres undefined) the EC50 was > 11 µM (inactive). In the case of `N=c1c(C(=O)NCCN2CCOCC2)cc2c(=O)n3ccccc3nc2n1CCc1ccccc1`, the EC50 was > 11 µM (inactive). In the case of `Cc1cc[n+](C2=C([O-])c3ccccc3C(=O)/C2=N\S(=O)(=O)c2cccs2)cc1C`, the EC50 was > 11 µM (inactive). For `C=CCOc1cccc(C2C(C(=O)c3cc4ccccc4o3)=C(O)C(=O)N2c2cc(C)on2)c1` (centres undefined), the EC50 was > 11 µM (inactive). For `CCN(CC)c1ccc(N=Cc2c(O)n(-c3cc(OC)ccc3OC)c(=O)[nH]c2=O)cc1`, the EC50 was > 11 µM (inactive). For `CC(=O)N1CCN(c2ccc(N=Cc3c(O)n(Cc4ccccc4)c(=O)[nH]c3=O)cc2)CC1`, the EC50 was > 11 µM (inactive). `CCOc1cccc(=O)c2c(C)n(-c3ccc(C(=O)O)cc3)c(C)c12` was tested, and the EC50 was > 11 µM (inactive). For `Cn1cc(C=C2C(=O)NC(=O)NC2=O)c2ccccc21`, the EC50 was > 11 µM (inactive). `Cc1cccc(C)c1NC(=O)CN1C(=O)S/C(=C\c2cccn2-c2cccc(C(=O)O)c2)C1=O` was tested, and the EC50 was > 11 µM (inactive). `COc1ccc(N2C(=O)/C(=C/c3ccc(N(C)C)o3)C(=O)NC2=S)cc1` was tested, and the EC50 was > 11 µM (inactive). `COCCCn1c(N)c(-c2nc3ccccc3n2C)c2nc3ccccc3nc21` was tested, and the EC50 was > 11 µM (inactive). For `CN1C(=O)/C(=C/c2ccc(-c3ccccc3[N+](=O)[O-])o2)SC1=Nc1ccc(Cl)c(C(=O)O)c1`, the EC50 was > 11 µM (inactive). `COC(=O)c1cccc(-n2c(C)cc(C=O)c2C)c1C` was tested, and the EC50 was > 11 µM (inactive). With `CCN(CC)c1ccc(C=C2C(=O)OC(C)(C(C)(C)C)OC2=O)cc1` (centres undefined) the EC50 was > 11 µM (inactive). With `O=c1[nH]c(=S)[nH]c2c1C(c1ccc(Br)cc1)c1c([nH]c(=S)[nH]c1=O)O2` the EC50 was > 11 µM (inactive). In the case of `Cc1ccccc1-n1c(O)c(/C=N/NC(=O)c2ccccc2O)c(=O)[nH]c1=S`, the EC50 was > 11 µM (inactive). `CCOc1ccccc1-n1c(O)c(C=Nc2ccc(N(CC)CC)cc2)c(=O)[nH]c1=O` was tested, and the EC50 was > 11 µM (inactive). In the case of `CCCCOC(=O)Cn1c2ccc(OC)cc2c2nc3ccccc3nc21`, the EC50 was > 11 µM (inactive). In the case of `NS(=O)(=O)c1cc(C(=O)NC2CCSc3ccccc32)ccc1Cl` (centres undefined), the EC50 was > 11 µM (inactive). For `O=S(=O)(c1ccccc1)N1CCC(O)(CSc2ccc(Cl)cc2)CC1`, the EC50 was > 11 µM (inactive). With `CC/C(=C\C=C\[C@@H]1C=C[C@@H]2CCC[C@H]2[C@@H]1C(=O)c1ccc[nH]1)[C@@H]1O[C@@H]([C@@H](C)C(=O)O)CC[C@@H]1C` the EC50 was > 11 µM (inactive). `C/C(=N\Nc1ccc(Cl)c(C(=O)O)c1)c1ccc[nH]1` was tested, and the EC50 was > 11 µM (inactive). `COc1cc(C2C(C#N)=C(N)OC3=C2C(=O)CCC3)ccc1OC(=O)N1CCOCC1` (centres undefined) was tested, and the EC50 was > 11 µM (inactive). For `CCN1/C(=C2/SC(=S)N(NC(C)=O)C2=O)Sc2ccc(OC)cc21`, the EC50 was > 11 µM (inactive). For `O=C1c2ccccc2C(=O)N1CCCc1nc(-c2ccncc2)no1`, the EC50 was > 11 µM (inactive). `CC(=O)c1ccc(NC(=O)CSc2nnc(-c3ccncc3)o2)cc1` was tested, and the EC50 was > 11 µM (inactive). With `Cc1cc(/C=N/Nc2ccc([N+](=O)[O-])cn2)c(C)n1-c1ccc(C(=O)O)cc1` the EC50 was > 11 µM (inactive). In the case of `Cc1ccc(/C=C(\C#N)C(=O)Nc2c(C)cccc2C)s1`, the EC50 was > 11 µM (inactive). In the case of `CN(C)c1ccc(/C=N/NC2=NS(=O)(=O)c3ccccc32)cc1`, the EC50 was > 11 µM (inactive). With `CCN(CC)C(=O)c1ccc2c(c1)C1C=CCC1C(C(=O)O)N2` (centres undefined) the EC50 was > 11 µM (inactive). In the case of `O=C(Cc1ccccc1)NNC(=O)c1cnccn1`, the EC50 was > 11 µM (inactive). `O=C(/C=C/c1ccc([N+](=O)[O-])o1)NNC(=O)c1ccc(F)cc1` showed a pEC50 of 6.63. With `NC1=NC(=O)/C(=C/c2ccc(-c3ccc(S(N)(=O)=O)cc3)o2)S1` the EC50 was > 11 µM (inactive). For `Cc1ccc(N=Cc2nc(-c3ccc(C)cc3)oc2O)cc1`, the EC50 was > 11 µM (inactive). With `CN1C(=O)C(=Cc2ccccc2OS(=O)(=O)c2ccccc2)C(=O)N(C)C1=O` the EC50 was > 11 µM (inactive).
